US20090005435A1, “Novel Compounds, Pharmaceutical Compositions Containing Same, and Methods of Use for Same” (priority 2004, published 2009)

Molecular target: T1, purified human FAS (Homo sapiens, UniProt P49327)
T1 construct: Human FAS was purified from cultured ZR-75-1 human breast cancer cells; endogenous in cells; host or cells: ZR-75-1 human breast cancer cells (ATCC); enzyme purified by PEG precipitation and Mono Q chromatography
Experiment: FAS enzymatic activity (malonyl-CoA dependent NADPH oxidation)
Type: biochemical
Details: for IC50: (SB)
Experimental: Purification of FAS from ZR-75-1 Human Breast Cancer Cells.
Human FAS was purified from cultured ZR-75-1 human breast cancer cells obtained from the American Type Culture Collection. The procedure, adapted from Linn et al., 1981, and Kuhajda et al., 1994, utilizes hypotonic lysis, successive polyethyleneglycol (PEG) precipitations, and anion exchange chromatography. ZR-75-1 cells are cultured at 37° C. with 5% CO2 in RPMI culture medium with 10% fetal bovine serum, penicillin and streptomycin.
Ten T150 flasks of confluent cells are lysed with 1.5 ml lysis buffer (20 mM Tris-HCl, pH 7.5, 1 mM EDTA, 0.1 mM phenylmethanesulfonyl fluoride (PMSF), 0.1% Igepal CA-630) and dounce homogenized on ice for 20 strokes. The lysate is centrifuged in JA-20 rotor (Beckman) at 20,000 rpm for 30 minutes at 4° C. and the supernatant is brought to 42 ml with lysis buffer. A solution of 50% PEG 8000 in lysis buffer is added slowly to the supernatant to a final concentration of 7.5%. After rocking for 60 minutes at 4° C., the solution is centrifuged in JA-20 rotor (Beckman) at 15,000 rpm for 30 minutes at 4° C. Solid PEG 8000 is then added to the supernatant to a final concentration of 15%. After the rocking and centrifugation is repeated as above, the pellet is resuspended overnight at 4° C. in 10 ml of Buffer A (20 mM K2HPO4, pH 7.4). After […] filtration, the protein solution is applied to a Mono Q 5/5 anion exchange column (Pharmacia). The column is washed for 15 minutes with buffer A at 1 ml/minute, and bound material is eluted with a linear 60-ml gradient over 60 minutes to 1 M KCl. FAS (MW˜270 kD) typically elutes at 0.25 M KCl in three 0.5 ml fractions identified using 4-15% SDS-PAGE with Coomassie G250 stain (Bio-Rad). FAS protein concentration is determined using the Coomassie Plus Protein Assay Reagent (Pierce) according to manufacturer's specifications using BSA as a standard. This procedure results in substantially pure preparations of FAS (>95%) as judged by Coomassie-stained gels.
Measurement of FAS Enzymatic Activity and Determination of the IC50 of the Compounds
FAS activity is measured by monitoring the malonyl-CoA dependent oxidation of NADPH spectrophotometrically at OD340 in 96-well plates (Dils et al and Arslanian et al, 1975). Each well contains 2 μg purified FAS, 100 mM K2HPO4, pH 6.5, 1 mM dithiothreitol (Sigma), and 187.5 μM β-NADPH (Sigma). Stock solutions of inhibitors are prepared in DMSO at 2, 1, and 0.5 mg/ml resulting in final concentrations of 20, 10, and 5 μg/ml when 1 μl of stock is added per well. For each experiment, cerulenin (Sigma) is run as a positive control along with DMSO controls, inhibitors, and blanks (no FAS enzyme) all in duplicate.
The assay is performed on a Molecular Devices SpectraMax Plus Spectrophotometer. The plate containing FAS, buffers, inhibitors, and controls are placed in the spectrophotometer heated to 37° C. Using the kinetic protocol, the wells are blanked on duplicate wells containing 100 μl of 100 mM K2HPO4, pH 6.5 and the plate is read at OD340 at 10 sec intervals for 5 minutes to measure any malonyl-CoA independent oxidation of NADPH. The plate is removed from the spectrophotometer and malonyl-CoA (67.4 μM, final concentration per well) and […] (61.8 μM, final concentration per well) are added to each well except to the blanks. The plate is read again as above with the kinetic protocol to measure the malonyl-CoA dependent NADPH oxidation. The difference between the Δ OD340 for the malonyl-CoA dependent and non-malonyl-CoA dependent NADPH oxidation is the specific FAS activity. Because of the purity of the FAS preparation, non-malonyl-CoA dependent NADPH oxidation is negligible.
The IC50 for the compounds against FAS is determined by plotting the Δ OD340 for each inhibitor concentration tested, performing linear regression and computing the best-fit line, r^2 values, and 95% confidence intervals. The concentration of compound yielding 50% inhibition of FAS is the IC50. […]

T1 sequence (P49327 whole entry): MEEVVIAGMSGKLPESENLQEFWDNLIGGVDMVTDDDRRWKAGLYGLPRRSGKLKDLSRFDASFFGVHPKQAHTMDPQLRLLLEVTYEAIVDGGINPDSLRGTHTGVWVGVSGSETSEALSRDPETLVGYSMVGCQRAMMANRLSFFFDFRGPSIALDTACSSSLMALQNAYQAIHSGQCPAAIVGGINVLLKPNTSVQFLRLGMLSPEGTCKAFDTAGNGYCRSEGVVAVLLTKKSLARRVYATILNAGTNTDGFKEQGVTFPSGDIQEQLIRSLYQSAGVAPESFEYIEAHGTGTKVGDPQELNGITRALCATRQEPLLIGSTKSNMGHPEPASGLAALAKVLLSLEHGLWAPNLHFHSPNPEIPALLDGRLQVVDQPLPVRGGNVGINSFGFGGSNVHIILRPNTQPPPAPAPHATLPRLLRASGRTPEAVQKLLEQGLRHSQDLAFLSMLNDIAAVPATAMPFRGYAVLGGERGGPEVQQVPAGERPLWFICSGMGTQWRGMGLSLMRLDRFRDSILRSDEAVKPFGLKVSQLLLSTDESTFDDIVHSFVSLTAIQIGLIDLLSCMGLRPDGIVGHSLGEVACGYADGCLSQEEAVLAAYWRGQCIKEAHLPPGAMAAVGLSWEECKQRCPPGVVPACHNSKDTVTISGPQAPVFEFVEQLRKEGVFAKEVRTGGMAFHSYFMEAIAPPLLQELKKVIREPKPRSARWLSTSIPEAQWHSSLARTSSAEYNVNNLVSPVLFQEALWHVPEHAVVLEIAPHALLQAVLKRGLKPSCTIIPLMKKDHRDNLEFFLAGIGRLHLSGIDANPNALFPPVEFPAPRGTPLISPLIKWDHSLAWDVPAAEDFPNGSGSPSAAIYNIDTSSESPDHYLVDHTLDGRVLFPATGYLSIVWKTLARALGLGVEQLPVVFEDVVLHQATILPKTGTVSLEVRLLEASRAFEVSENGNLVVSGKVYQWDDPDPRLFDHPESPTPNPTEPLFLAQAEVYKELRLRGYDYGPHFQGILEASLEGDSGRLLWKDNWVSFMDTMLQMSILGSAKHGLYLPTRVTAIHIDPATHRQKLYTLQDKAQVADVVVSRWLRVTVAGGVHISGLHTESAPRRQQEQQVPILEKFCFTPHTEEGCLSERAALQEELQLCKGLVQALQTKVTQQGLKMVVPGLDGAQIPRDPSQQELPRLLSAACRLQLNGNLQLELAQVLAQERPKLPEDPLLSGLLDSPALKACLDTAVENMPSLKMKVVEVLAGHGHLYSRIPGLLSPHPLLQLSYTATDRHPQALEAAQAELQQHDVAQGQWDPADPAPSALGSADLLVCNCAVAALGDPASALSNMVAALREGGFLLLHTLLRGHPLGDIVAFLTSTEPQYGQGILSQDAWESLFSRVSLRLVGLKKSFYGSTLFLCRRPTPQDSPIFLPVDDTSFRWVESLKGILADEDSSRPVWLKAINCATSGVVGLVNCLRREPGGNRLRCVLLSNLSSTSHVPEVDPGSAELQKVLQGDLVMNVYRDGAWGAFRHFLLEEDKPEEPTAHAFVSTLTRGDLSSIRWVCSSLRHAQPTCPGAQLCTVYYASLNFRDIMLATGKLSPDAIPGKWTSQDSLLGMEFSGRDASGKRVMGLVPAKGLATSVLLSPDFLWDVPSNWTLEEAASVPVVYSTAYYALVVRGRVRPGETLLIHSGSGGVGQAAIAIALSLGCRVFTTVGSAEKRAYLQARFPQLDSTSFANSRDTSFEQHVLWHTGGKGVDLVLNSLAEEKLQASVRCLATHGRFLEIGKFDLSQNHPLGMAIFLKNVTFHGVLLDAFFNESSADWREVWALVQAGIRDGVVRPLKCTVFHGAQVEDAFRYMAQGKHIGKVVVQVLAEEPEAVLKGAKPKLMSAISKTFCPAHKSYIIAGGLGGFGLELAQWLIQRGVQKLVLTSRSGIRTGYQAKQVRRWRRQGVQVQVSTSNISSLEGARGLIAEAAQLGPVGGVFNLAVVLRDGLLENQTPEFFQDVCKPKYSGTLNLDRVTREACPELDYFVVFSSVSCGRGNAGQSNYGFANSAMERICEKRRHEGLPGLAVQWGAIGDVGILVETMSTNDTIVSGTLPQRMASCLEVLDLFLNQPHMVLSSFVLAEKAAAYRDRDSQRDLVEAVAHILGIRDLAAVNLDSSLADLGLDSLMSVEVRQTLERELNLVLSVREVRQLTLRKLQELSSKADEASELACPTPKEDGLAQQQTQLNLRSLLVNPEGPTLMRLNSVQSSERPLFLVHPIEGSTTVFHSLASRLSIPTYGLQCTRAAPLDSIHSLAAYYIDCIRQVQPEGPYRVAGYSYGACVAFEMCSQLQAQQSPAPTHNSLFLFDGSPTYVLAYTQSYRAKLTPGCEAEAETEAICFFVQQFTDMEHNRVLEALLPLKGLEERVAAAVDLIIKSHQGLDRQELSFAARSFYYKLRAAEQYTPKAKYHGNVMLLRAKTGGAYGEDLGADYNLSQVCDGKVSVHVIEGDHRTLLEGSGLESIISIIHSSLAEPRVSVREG

IC50 [µM]	Compound	FAS (IC50)
854	CCCCCCCCCCC1(C)SC(=O)C(C)(C)C1=O (stereo not shown) [Compound 12, 3,3,5-Trimethyl-5-decyl-thiophene-2,4-dione]	–
804	C=CCC1(CC=C)C(=O)SC(C)(CCCCCCCCCC)C1=O (stereo not shown) [Compound 15, 3,3-Diallyl-5-methyl-5-decyl-thiophene-2,4-dione]	–

Compound	IC50 [µM]	FAS (IC50)
C=CCC1(CC=C)C(=O)SC(C)(CCCCCCCC)C1=O (racemic) [Compound 4, 3,3-Diallyl-5-methyl-5-octyl-thiophene-2,4-dione]	884	Neg
